From patent US12655185B2, “Peptide inhibitors of interleukin-23 and their use to treat inflammatory diseases” (Protagonist Therapeutics, Inc., priority 2016, dated 2026)
Bridge positions count the residues as written; N and C are the ends. Peptide text beside a SMILES is read from it.

Biological target: T1, IL-23 binding to IL23R_huFC (human IL-23R) (Homo sapiens, UniProt P29460+Q9NPF7)
T1 sequence (Q9NPF7 20-189): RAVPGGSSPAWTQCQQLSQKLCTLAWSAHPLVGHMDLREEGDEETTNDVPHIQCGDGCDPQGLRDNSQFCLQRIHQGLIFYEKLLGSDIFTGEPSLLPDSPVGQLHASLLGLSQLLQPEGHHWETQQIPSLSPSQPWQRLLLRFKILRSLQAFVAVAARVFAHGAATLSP
T1 sequence (P29460 23-328): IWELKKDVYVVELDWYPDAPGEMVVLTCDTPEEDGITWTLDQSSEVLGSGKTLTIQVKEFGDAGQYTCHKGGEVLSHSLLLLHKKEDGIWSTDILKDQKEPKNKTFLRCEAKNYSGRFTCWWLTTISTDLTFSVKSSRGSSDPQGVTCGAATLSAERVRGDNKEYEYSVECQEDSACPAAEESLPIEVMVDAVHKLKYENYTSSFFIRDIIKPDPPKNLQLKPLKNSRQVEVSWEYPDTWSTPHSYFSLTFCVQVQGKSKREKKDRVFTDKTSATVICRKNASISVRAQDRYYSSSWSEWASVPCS
Assay: IL23-IL23R Competitive Binding ELISA
Settings: inhibition of IL-23/IL-23R binding; IL-23 0.9 nM; class symbols; read-out: IC50 IL23R_huFC
Method: Immulon® 4HBX plate was coated with 200 ng/well of IL23R_huFC and incubated overnight at 4° C. […] Serial dilutions of test peptides and IL-23 at a final concentration of 0.9 nM diluted in PBS were added to each well and incubated for 2 hours at room temperature. After the wells were washed, bound IL-23 was detected by incubation with 50 ng/well of goat anti-p40 polyclonal antibodies (R&D Systems #AF309) diluted in PBS for 1 hour at room temperature. The wells were again washed four times with PBST. […] The plate was finally washed as above. Signals were visualized with TMB One Component HRP Membrane Substrate, quenched with 2 M sulfuric acid and read spectrophotometrically at 450 nm.

| IC50 | Compound |
| --- | --- |
| 1 to 10 µM | CC[C@H](C)[C@@H]1NC(=O)[C@H](CCCCN)NC(=O)[C@H](C)NC(=O)[C@H](Cc2c[nH]c3ccccc23)NC(=O)[C@H](CCCNC(=N)N)NC(=O)[C@H](CCC(N)=O)NC(=O)[C@H](CCC(=O)O)NC(=O)[C@H](CCC(N)=O)NC(=O)[C@H](CC(N)=O)NC(=O)[C@H](CC(C)C)NC(=O)[C@H](CC(N)=O)NC(=O)[C@@H]2CCCN2C(=O)[C@H](CC(=O)O)NC(=O)[C@H](C(C)C)NC(=O)CNC(=O)[C@H](C)NC(=O)[C@H](CCC(=O)O)NC(=O)[C@H](CO)NC(=O)[C@H](CCSC)NC(=O)[C@H](CCCNC(=N)N)NC(=O)[C@H](CCCNC(=N)N)NC(=O)[C@H](CC(C)C)NC(=O)[C@@H](NC(=O)[C@H](CCC(N)=O)NC(=O)[C@H](CCSC)NC(=O)[C@H](CC(N)=O)NC(=O)[C@H](Cc2ccccc2)NC(C)=O)CSSC[C@@H](C(N)=O)NC(=O)[C@H](CC(=O)O)NC(=O)[C@H](CC(=O)O)NC(=O)[C@H](CCSC)NC(=O)[C@H]([C@@H](C)CC)NC(=O)[C@H](CO)NC(=O)[C@H](C)NC1=O [Peptide 22] (Ac-FNMQCLRRMSEAGVDPNLNQEQRWAKIASIMDDC-NH2; disulfide 5-34) |
| 1 to 10 µM | CC[C@H](C)[C@@H]1NC(=O)[C@H](CCCCN)NC(=O)[C@H](C)NC(=O)[C@H](Cc2c[nH]c3ccccc23)NC(=O)[C@H](CCCNC(=N)N)NC(=O)[C@H](CCC(N)=O)NC(=O)[C@H](CCC(=O)O)NC(=O)[C@H](CCC(N)=O)NC(=O)[C@H](C)NC(=O)[C@H](CC(C)C)NC(=O)[C@H](CC(N)=O)NC(=O)[C@@H]2CCCN2C(=O)[C@H](CC(=O)O)NC(=O)[C@H](C(C)C)NC(=O)CNC(=O)[C@H](C)NC(=O)[C@H](CCC(=O)O)NC(=O)[C@H](CO)NC(=O)[C@H](CCSC)NC(=O)[C@H](CCCNC(=N)N)NC(=O)[C@H](CCCNC(=N)N)NC(=O)[C@H](CC(C)C)NC(=O)[C@@H](NC(=O)[C@H](CCC(N)=O)NC(=O)[C@H](CCSC)NC(=O)[C@H](CC(N)=O)NC(=O)[C@H](Cc2ccccc2)NC(C)=O)CSSC[C@@H](C(N)=O)NC(=O)[C@H](CC(=O)O)NC(=O)[C@H](CC(=O)O)NC(=O)[C@H](CCSC)NC(=O)[C@H]([C@@H](C)CC)NC(=O)[C@H](CO)NC(=O)[C@H](CCCCN)NC1=O [Peptide 17] (Ac-FNMQCLRRMSEAGVDPNLAQEQRWAKIKSIMDDC-NH2; disulfide 5-34) |
| 10 to 100 µM | CC[C@H](C)[C@@H]1NC(=O)CNC(=O)[C@H](C)NC(=O)[C@H](CCC(=O)O)NC(=O)[C@H](C(C)C)NC(=O)[C@H](CCSC)NC(=O)[C@H](CCCNC(=N)N)NC(=O)[C@H](CCCNC(=N)N)NC(=O)[C@H](CC(C)C)NC(=O)[C@@H](NC(=O)[C@H](CCC(N)=O)NC(=O)[C@H](CCSC)NC(=O)[C@H](CC(N)=O)NC(=O)[C@H](Cc2ccccc2)NC(C)=O)CSSC[C@@H](C(N)=O)NC(=O)[C@H](CC(=O)O)NC(=O)[C@H](CC(=O)O)NC(=O)[C@H](Cc2ccccc2)NC(=O)[C@H]([C@@H](C)CC)NC(=O)[C@H](CO)NC(=O)[C@H](CCCNC(=N)N)NC(=O)[C@H]([C@@H](C)CC)NC(=O)[C@H](CCCCN)NC(=O)[C@H](C)NC(=O)[C@H](Cc2c[nH]c3ccccc23)NC(=O)[C@H](CCCNC(=N)N)NC(=O)[C@H](CCC(N)=O)NC(=O)CNC(=O)[C@H](CO)NC(=O)[C@H](CC(N)=O)NC(=O)[C@H](CC(C)C)NC(=O)[C@H](CC(N)=O)NC(=O)[C@@H]2CCCN2C(=O)[C@H](CC(=O)O)NC1=O [Peptide 8] (Ac-FNMQCLRRMVEAGIDPNLNSGQRWAKIRSIFDDC-NH2; disulfide 5-34) |

More lines, now with the values behind:

| Compound | IC50 |
| --- | --- |
| CC[C@H](C)[C@@H]1NC(=O)[C@H](CCCCN)NC(=O)[C@H](C)NC(=O)[C@H](C)NC(=O)[C@H](CCCNC(=N)N)NC(=O)[C@H](CCC(N)=O)NC(=O)[C@H](CCC(=O)O)NC(=O)[C@H](CCC(N)=O)NC(=O)[C@H](CC(N)=O)NC(=O)[C@H](CC(C)C)NC(=O)[C@H](CC(N)=O)NC(=O)[C@@H]2CCCN2C(=O)[C@H](CC(=O)O)NC(=O)[C@H](C(C)C)NC(=O)CNC(=O)[C@H](C)NC(=O)[C@H](CCC(=O)O)NC(=O)[C@H](CO)NC(=O)[C@H](CCSC)NC(=O)[C@H](CCCNC(=N)N)NC(=O)[C@H](CCCNC(=N)N)NC(=O)[C@H](CC(C)C)NC(=O)[C@@H](NC(=O)[C@H](CCC(N)=O)NC(=O)[C@H](CCSC)NC(=O)[C@H](CC(N)=O)NC(=O)[C@H](Cc2ccccc2)NC(C)=O)CSSC[C@@H](C(N)=O)NC(=O)[C@H](CC(=O)O)NC(=O)[C@H](CC(=O)O)NC(=O)[C@H](CCSC)NC(=O)[C@H]([C@@H](C)CC)NC(=O)[C@H](CO)NC(=O)[C@H](CCCCN)NC1=O [Peptide 20] (Ac-FNMQCLRRMSEAGVDPNLNQEQRAAKIKSIMDDC-NH2; disulfide 5-34) | 1 to 10 µM |
| CC[C@H](C)[C@@H]1NC(=O)[C@H](CCCCN)NC(=O)[C@H](C)NC(=O)[C@H](Cc2c[nH]c3ccccc23)NC(=O)[C@H](CCCNC(=N)N)NC(=O)[C@H](CCC(N)=O)NC(=O)[C@H](CCC(=O)O)NC(=O)[C@H](CCC(N)=O)NC(=O)[C@H](CC(N)=O)NC(=O)[C@H](CC(C)C)NC(=O)[C@H](CC(N)=O)NC(=O)[C@@H]2CCCN2C(=O)[C@H](CC(=O)O)NC(=O)[C@H](C(C)C)NC(=O)CNC(=O)[C@H](C)NC(=O)[C@H](CCC(=O)O)NC(=O)[C@H](CO)NC(=O)[C@H](C)NC(=O)[C@H](CCCNC(=N)N)NC(=O)[C@H](CCCNC(=N)N)NC(=O)[C@H](CC(C)C)NC(=O)[C@@H](NC(=O)[C@H](CCC(N)=O)NC(=O)[C@H](CCSC)NC(=O)[C@H](CC(N)=O)NC(=O)[C@H](Cc2ccccc2)NC(C)=O)CSSC[C@@H](C(N)=O)NC(=O)[C@H](CC(=O)O)NC(=O)[C@H](CC(=O)O)NC(=O)[C@H](CCSC)NC(=O)[C@H]([C@@H](C)CC)NC(=O)[C@H](CO)NC(=O)[C@H](CCCCN)NC1=O [Peptide 12] (Ac-FNMQCLRRASEAGVDPNLNQEQRWAKIKSIMDDC-NH2; disulfide 5-34) | 1 to 10 µM |
| CC[C@H](C)[C@@H]1NC(=O)[C@H](CCCCN)NC(=O)[C@H](C)NC(=O)[C@H](Cc2c[nH]c3ccccc23)NC(=O)[C@H](CCCNC(=N)N)NC(=O)[C@H](CCC(N)=O)NC(=O)[C@H](CCC(=O)O)NC(=O)[C@H](CCC(N)=O)NC(=O)[C@H](CC(N)=O)NC(=O)[C@H](CC(C)C)NC(=O)[C@H](CC(N)=O)NC(=O)[C@@H]2CCCN2C(=O)[C@H](CC(=O)O)NC(=O)[C@H](C(C)C)NC(=O)CNC(=O)[C@H](C)NC(=O)[C@H](CCC(=O)O)NC(=O)[C@H](C)NC(=O)[C@H](CCSC)NC(=O)[C@H](CCCNC(=N)N)NC(=O)[C@H](CCCNC(=N)N)NC(=O)[C@H](CC(C)C)NC(=O)[C@@H](NC(=O)[C@H](CCC(N)=O)NC(=O)[C@H](CCSC)NC(=O)[C@H](CC(N)=O)NC(=O)[C@H](Cc2ccccc2)NC(C)=O)CSSC[C@@H](C(N)=O)NC(=O)[C@H](CC(=O)O)NC(=O)[C@H](CC(=O)O)NC(=O)[C@H](CCSC)NC(=O)[C@H]([C@@H](C)CC)NC(=O)[C@H](CO)NC(=O)[C@H](CCCCN)NC1=O [Peptide 13] (Ac-FNMQCLRRMAEAGVDPNLNQEQRWAKIKSIMDDC-NH2; disulfide 5-34) | < 1 µM |
